These are literature values, as cited in patent US20140308215A1, “ANTIPERSPIRANT COMPOSITIONS AND METHOD FOR REDUCING PERSPIRATION” (Conopco, Inc., d/b/a Unilever, priority 2011, published 2014).

The conditions of this data set: Hildebrand Solubility Parameter of the liquid carrier.
As for `CCCCCCCCCCCCCCCC` [Hexadecane], the HSP is reported as 16.36 (MPa)^0.5.

On to `CCCCCCCCCCCCCC(=O)OC(C)C` [Isopropyl myristate], for which the HSP is on record as 16.40 (MPa)^0.5.

On to `CCCCCCCCCCC(CO)CCCCCCCC` (stereo not shown) [Octyl dodecanol], for which the HSP is on record as 18.25 (MPa)^0.5.

`CCCCC(CC)C(=O)OCC(COC(=O)C(CC)CCCC)OC(=O)C(CC)CCCC` (stereo not shown) [Triethylhexanoin]: the HSP is 18.02 (MPa)^0.5.
